# In publication PMC6977461 (Chemical Science, 2019):
# *1 amine or outer side, *2 acyl side, *3 side chain or, on linkers, in order; H or OH if unused. The star is where a group is joined. X1 = C[C@@H](CN*)NC(=O)[C@@H](N)Cc1c[nH]cn1; CO = O=C([*:1])[*:2]
# Columns and labels:
# GLP-1R [1] = molecular target: T1, GLP-1R (Homo sapiens, UniProt P43220); assay: β-arrestin-2 recruitment assay in PathHunter CHO-GLP-1R cells; assay type: cell-based; set-up: host or cells: PathHunter CHO-GLP-1R-βarr2 cells; settings: 30 min stimulation at 37 °C, n = 5, versus non-ureido parents 10 and 13
# T1 sequence (P43220 24-463): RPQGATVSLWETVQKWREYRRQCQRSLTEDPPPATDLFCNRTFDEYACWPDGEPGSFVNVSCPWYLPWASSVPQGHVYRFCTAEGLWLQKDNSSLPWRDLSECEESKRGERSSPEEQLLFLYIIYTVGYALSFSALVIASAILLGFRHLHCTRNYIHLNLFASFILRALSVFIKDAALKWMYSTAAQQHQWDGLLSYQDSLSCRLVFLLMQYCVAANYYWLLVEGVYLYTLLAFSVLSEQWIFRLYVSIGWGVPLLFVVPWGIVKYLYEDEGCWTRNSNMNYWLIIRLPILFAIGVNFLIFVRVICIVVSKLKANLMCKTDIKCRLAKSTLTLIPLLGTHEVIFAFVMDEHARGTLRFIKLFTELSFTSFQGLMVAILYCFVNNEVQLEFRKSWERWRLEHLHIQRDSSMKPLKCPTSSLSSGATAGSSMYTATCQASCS
# Description: signal measured at 665 nm by that measured at 620 nm (ratio). The results are expressed as a percent […]
# tested in each experiment at several concentrations to generate a concentration-response curve from which its EC50 value and SE are calculated using GraphPad Prism.
# In vitro pharmacology on immortalised CHO-GLP-1R cells (EC50: Method C3) PathHunter CHO-GLP-1R cells were stimulated for 30 min at 37°C with indicated concentration of agonist in serum free medium without phosphodiesterase inhibitors. The reaction was terminated by addition of cAMP detection reagents (cAMP Dynamic 2, Cisbio) and read by HTRF.
# β-arrestin-2 recruitment assay […]
# agonist in serum free medium. The reaction was terminated by addition of PathHunter detection reagents (DiscoverX) and luminescent signal recorded.
# Calculation of signal bias
# Biased signalling was quantified using a modified form of the operational model.[6] LogR values were calculated for each ligand in each assay, and ∆LogR were determined by subtracting from the […]
# Bias was then determined as ∆∆LogR by subtracting ∆LogR for […]
# GLP-1R [2] = molecular target: T1, GLP-1R; assay: cAMP production functional assay in HEK293 cells transfected with GLP-1R (Method C1); assay type: cell-based; set-up: host or cells: HEK-293T
# Description:  HEK-293T cells (Multispan inc., lot#.DC1267-062017) were suspended in cell culture media
# (DMEM 1X + GlutaMAX (Gibco 31966-021)) complemented with FBS 10% (Sigma Aldrich
#  βTC6 cells were suspended in HBSS buffer (Invitrogen) complemented with 20 mM HEPES (pH
# In vitro pharmacology on HEK-293T cells (EC50: Method C1)
# cells (Multispan inc., lot#.DC1267-062017) was determined by measuring their effects on cAMP
# production using the HTRF detection method (performed by UREkA SARL). The cells were distributed
# in 384-well microplates at a density of 1.0x10^4 cells/well. Stock solutions of the test compounds or the
# reference agonist were prepared at a concentration of 1 mM in DMSO. Then, compounds to be tested
# were diluted in cell culture media and transferred to the plate containing the cells to reach final assay
# SNAP-tagged human GLP-1R = molecular target: T2, SNAP-tagged human GLP-1R (Homo sapiens, UniProt P43220); assay: SNAP-GLP-1R internalization by confocal microscopy in INS-1 832/3 cells; assay type: cell-based; settings: 10 nM ligand, 30 min, versus non-ureido peptides
# T2 construct: host or cells: INS-1 832/3 cells with endogenous GLP-1R deleted by CRISPR/Cas9
# T2 sequence (P43220 24-463): as above
# C57BL/6J mice = assay: IPGTT in healthy mice 3, 6 or 9 h after i.v. dosing; assay type: in vivo; settings: 1 µg per mouse (10 nmol kg-1) i.v., glucose 2 g kg-1 i.p., fasted 9 h, n = 6, versus vehicle
# Description: Supérieur et de la Recherche) ethics committees (protocol number 05049-06). For the dose-response study, animal procedures were approved by British Home Office under the UK Animal (Scientific Procedures) Act 1986 (Project Licence 70/7596). Lean male C57Bl/6J mice (6-8 weeks of age, body […]
# schedule, lights on at 07:00). Ad libitum access to water and normal chow (RM1, Special Diet Services) was provided unless otherwise stated. Mice were housed in groups of five. For the pharmacokinetics studies performed by TechMedILL service (PCBIS platform, CNRS UMS3286), mice were housed in polycarbonate cages (PCT2L12SHT, Allentown) enriched with play tunnels throughout the […]
# environment (22 ± 1 °C) with a relative humidity (50 ± 10 %) and a normal 12 hours light cycle (at 8:00 pm lights off). A standard chow diet (A04, SAFE, France) and tap water were provided ad libitum. […]
# After the acclimation period of 5 days, 20-25 g male C57Bl/6J mice 8 weeks old (Charles River laboratories) were randomized into groups (6 mice per group) according to their body weight. The mice were acutely treated with vehicle or 1 µg per mouse (10 nmol kg-1) of oligomers via i.v. injections (formulation: 4 µg mL-1 in PBS 1×) IPGTTs (glucose 2 g kg-1 i.p.) were performed after 3 or 6 hours of […]
# (§1) Blood glucose was measured before the administration of […]
# as §1
substance,measurement,setting,value
{X1-CO}-EGTFTSDLSKQLEEEAVRLFIEWLKNGGPSSGAPPSKKKKKK-NH2 [compound 14],recruitment of β-arrestin to GLP-1R,GLP-1R [1],selectively diminished
same,EC50,"GLP-1R [2]; HEK-293T cells exogenously expressing human GLP-1R, cAMP by HTRF, 10 min at 37 °C, Method C1, mean, n = 3 (2: n = 6), read-out: EC50 (GLP-1R potency)",1.1 pM
same,"Potency (%), percentage of potency compared to GLP-1-NH2",GLP-1R [2]; from EC50 in HEK293 GLP-1R cAMP assay,287%
same,endocytosis of the GLP-1R,SNAP-tagged human GLP-1R,noticeably reduced
same,"blood glucose control, IPGTT 9 h after dosing",C57BL/6J mice,strong ability to control blood glucose levels
